# Results as given in patent publication US8796288B2, “Anhydrous crystalline forms of N-[1-(2-ethoxyethyl)-5-(N-ethyl-N-methylamino)-7-(4-methylpyridin-2-yl-amino)-1H-pyrazolo[4,3-d]pyrimidine-3-carbonyl]methanesulfonamide” (Pfizer Inc., priority 2005, dated 2014).
# Entries after “also recorded” stand apart in the source; their conditions may differ.
# Assays:
# [1] = Stability of Form A and Form B (slurry conversion in methanol with PXRD, DSC comparison); assay type: physicochemical
# Method: Form A, Form B and Form C were each analyzed using differential scanning calorimetry (DSC). A TA Instruments Q1000 differential scanning calorimeter was used to perform each analysis. Each sample was heated from 25 to 300° C. at 20° C. per minute in an aluminium pan with the lid laid on top, with a nitrogen purge gas. The temperature of the melting endothermic peak was reported as the melting point.
# Approximately 25 mg of Form A (see Example 3) was slurried at room temperature with 1 ml of methanol. […] A small sample was removed from the slurry.
# The thermodynamically stabilities of Form A and Form B were compared as described below. First, approximately 25 mg of Form A was slurried in approximately 1 ml of methanol. […] A small sample was removed from the slurry.
# [2] = Stability of Form B and Form C (bridging slurry studies, PXRD analysis); assay type: physicochemical
# Method: Bridging studies were performed in the following solvent systems to determine the relative thermodynamic stabilities of Form B and Form C: (1) THF/H2O (50:50 volume/volume), (2) methyl ethyl ketone (“MEK”), (3) methanol, and (4) methanol/dichloromethane (DCM) (50:50 volume/volume). The MEK study was performed at room temperature while the studies with the other three solvent systems were performed at both 40° C. and 60° C. In each study a suspension of Form B in the appropriate solvent system was prepared. Approximately 10 mg of Form C was then added to each suspension. The suspensions were then allowed to slurry at the appropriate temperature for a specific period of time. The solvent system, temperature of the solvent system, and period of time over which the suspension was allowed to slurry are set forth below for each study: • (1) Study A: Slurried for 3 days in MEK at room temperature; • (2) Study B: Slurried for 3 days in THF/H2O (50:50) at 40° C.; • (3) Study C: Slurried for 3 days in THF/H2O (50:50) at 60° C.; • (4) Study D: Slurried for 21 days in Methanol at 40° C.; • (5) Study E: Slurried for 21 days in Methanol at 60° C.; • (6) Study F: Slurried for 5 days in Methanol/DCM at 40° C.; and • (7) Study G: Slurried for 21 days in Methanol/DCM at 60° C.
# At the end of the specified time period, a sample was removed from each slurry and analyzed by PXRD. […]
structure (smiles),measurement,setting,value
"CCOCCn1nc(C(=O)NS(C)(=O)=O)c2nc(N(C)CC)nc(Nc3cc(C)ccn3)c21 [Form A, N-[1-(2-ethoxyethyl)-5-(N-ethyl-N-methylamino)-7-(4-methylpyridin-2-yl-amino)-1H-pyrazolo[4,3-d]pyrimidine-3-carbonyl]methanesulfonamide]",crystalline form found by PXRD after slurrying,[1]; approximately 25 mg slurried in approximately 1 ml of methanol,Form B
"CCOCCn1nc(C(=O)NS(C)(=O)=O)c2nc(N(C)CC)nc(Nc3cc(C)ccn3)c21 [Form B, N-[1-(2-ethoxyethyl)-5-(N-ethyl-N-methylamino)-7-(4-methylpyridin-2-yl-amino)-1H-pyrazolo[4,3-d]pyrimidine-3-carbonyl]methanesulfonamide]",relative thermodynamic stability of Form B and Form C above the crossover point,[2]; temperatures above the crossover point,more thermodynamically stable than Form C; also recorded: most thermodynamically stable form
same,relative thermodynamic stability of Form A and Form B,"[1]; from slurry conversion analysis and DSC analysis, ambient as well as elevated temperatures",more thermodynamically stable than Form A
"CCOCCn1nc(C(=O)NS(C)(=O)=O)c2nc(N(C)CC)nc(Nc3cc(C)ccn3)c21 [Form C, N-[1-(2-ethoxyethyl)-5-(N-ethyl-N-methylamino)-7-(4-methylpyridin-2-yl-amino)-1H-pyrazolo[4,3-d]pyrimidine-3-carbonyl]methanesulfonamide]",relative thermodynamic stability of Form B and Form C below the crossover point,[2]; temperatures below the crossover point (including ambient),more thermodynamically stable than Form B; also recorded: most thermodynamically stable form
